What was measured:
[1] = system: Ba/F3 EGFR L858R/T790M/C797S; experiment: Cell proliferation inhibition experiment (Cell Titer-Glo); format: cell-based; conditions: Mus musculus, 72 hours, read-out: Ba/F3 EGFR L858R_T790M_C797S IC50
Method: (§1) Experimental objective: The objective of this test example is to test the inhibitory activity of compounds on the proliferation of different EGFR C797S drug-resistant mutant cell lines Ba/F3 EGFR Del19/T790M/C797S, Ba/F3 EGFR L858R/T790M/C797S, and Ba/F3 EGFR Del19/C797S. Experimental instruments: Centrifuge (Eppendorf 5810R); Microplate reader (BioTek Synergy H1) Pipette (Eppendorf or Rainin); Carbon dioxide incubator (Thermo 311) Cell counter (Life Countess II) Experimental reagents and consumables: • Ba/F3 EGFR Del19/T790M/C797S cells were purchased from KYinno Biotechnology Co., Ltd.; • Ba/F3 EGFR Del19/C797S cells were purchased from CoBioer Biosciences Co., Ltd.; • Ba/F3 EGFR L858R/T790M/C797S cells were purchased from CoBioer Biosciences Co., Ltd.; • Cell Titer-Glo was purchased from Promega, with a catalogue number of G7573; • RPMI 1640 was purchased from Gibco, with a catalogue number of 22400089; • FBS was purchased from Gibco, with a catalogue number of 10091148; • cell culture plates were purchased from Corning, with a catalogue number of 3610. Experimental methods: The inhibitory activity of the compound on the proliferation of different EGFR C797S drug-resistant mutant cell lines was detected using the Cell Titer-Glo method. The different cell lines were cultured in RPMI 1640 complete culture medium containing 10% FBS under conditions of 37°C and 5% CO2, the cells were collected by centrifugation when growing to a certain density, and adjusted to appropriate cell density after counting, the cells were spread on a white 96-well plate at 90 µL/well, and cultured in a 37°C, 5% CO2 incubator overnight, prepared compound solutions at different concentrations were added at 10 µL/well, corresponding solvent controls were set, and all wells were cultured in a 37°C, 5% CO2 incubator for 72 hours, 50 µL of CellTiter-Glo solution was added to each well, shook and mixed evenly, and incubated in the dark for 10 minutes, and a BioTek Synergy H1 microplate reader was used for reading. Experimental data processing method: The luminescence signal value was used to calculate the inhibition rate. Graphpad Prism software was used to fit the concentration and inhibition rate to a nonlinear regression curve, so as to obtain the IC50 value, as shown in the Table below for details.

Ba/F3 EGFR Del19/C797S = experiment: as above; format: cell-based; conditions: Mus musculus, 72 hours, read-out: Ba/F3 EGFR Dell9/C797S IC50
Method: as §1

[2] = system: Ba/F3 EGFR Del19/T790M/C797S; experiment: as above; format: cell-based; conditions: Mus musculus, 72 hours, read-out: Ba/F3 EGFR Del19_T790M_C797S IC50
Method: as §1

[3] = Rat pharmacokinetic evaluation test; format: in vivo; conditions: male, po, SD rats, plasma, p.o. 5 mg/kg
Method: 1. Study objective: SD rats were used as test animals to study the pharmacokinetic behaviour of the compounds of the present invention in rats (plasma) after oral administration at a dose of 5 mg/kg. 2. Experimental scheme: 2.1 Experimental drugs: The example compounds of the present invention, made in house. 2.2 Experimental animals: 3 SD rats/group, male, from Shanghai Jiesijie Experimental Animal Co., Ltd., animal production license number (SCXK (Shanghai) 2013-0006 N0.311620400001794). 2.3 Preparation formulation: • Formulation of drug for oral administration: 20% solutol HS15 in 0.5% MC (methylcellulose) • 20 g of a Solutol HS15 solid and 0.5 g of a MC solid powder were weighed and dissolved in 80 mL of purified water, and the mixture was vortexed, mixed until uniform, and subjected to ultrasound treatment to obtain a clear solution of 20% solutol HS15 in 0.5% MC. The example compound was weighed into a 20 mL glass vial, the solution was added thereto and the mixture was subjected to ultrasound treatment for 10 minutes to obtain a clear solution at a concentration of 0.5 mg/mL. 2.4 Administration: 3 male SD rats were administered p.o. respectively after the rats were fasted overnight; and the p.o. dose was 5 mg/kg and the administration volume was 10 mL/kg. 2.5 Sample collection: Blood collection: Before and after administration to rats, 0.2 mL of blood was collected from the jugular vein at 0.25, 0.5, 1, 2, 4, 6, 8 and 24 h, and placed in an EDTA-K2 anticoagulation tube, which was centrifuged at 6000 rpm at 4°C for 6 min to separate plasma which was stored at -80°C; and the animals were fed 4 h after administration. 2.6 Sample treatment: • 1) Acetonitrile (160 µL) was added to plasma sample (40 µL) for precipitation, and the mixture was centrifuged at 3500 × g for 5-20 min. • 2) The treated supernatant solution was taken and subjected to LC/MS/MS to analyse the concentrations of the test compound. LC/MS/MS analysis instrument: AB Sciex API 4000 Qtrap. 2.7 Liquid phase analysis: • Liquid phase conditions: Shimadzu LC-20AD pump • Chromatographic column: Agilent ZORBAX XDB-C18 (50 × 2.1 mm, 3.5 µm), mobile phase: solution A: 0.1% formic acid in water, solution B: acetonitrile • Flow rate: 0.4 mL/min • Elution time: 0-4.0 min, with eluents as follows:
3. Experimental results and analysis: The main pharmacokinetic parameters were calculated using WinNonlin 6.1.

IC50 [1] [nM] | IC50 (Ba/F3 EGFR Del19/C797S) [nM] | IC50 [2] [nM] | AUC(0-t) [3] [ng·h/mL] | Cmax [3] [ng/mL] | half-life [3] [h] | Compound
14 | 11 | 7.1 | 2100 | 178 | 2.3 | CC(C)c1c(F)cc(N2C[C@H](CS(C)(=O)=O)[C@H]2C)c2cnc(Nc3ccnc(-c4cn(C)nc4Cl)n3)cc12 [Example 1, N-(2-(3-chloro-1-methyl-1H-pyrazol-4-yl)pyrimidin-4-yl)-6-fluoro-5-isopropyl-8-((2R,3S)-2-methyl-3-((methanesulphonyl)methyl)azetidin-1-yl)isoquinolin-3-amine]
15 | 6.2 | 4.5 | 1770 | 142 | 3.9 | CC(C)c1c(F)cc(N2C[C@H](N(C)S(C)(=O)=O)[C@H]2C)c2cnc(Nc3ccnc(-c4cn(C)nc4Cl)n3)cc12 [Example 2, N-((2R,3S)-1-(3-((2-(3-chloro-1-methyl-1H-pyrazol-4-yl)pyrimidin-4-yl)amino)-6-fluoro-5-isopropylisoquinolin-8-yl)-2-methylazetidin-3-yl)-N-methylmethanesulphonamide]
– | 7.8 | 4.5 | 2000 | 157 | 3.9 | Cc1nn(C)cc1-c1nccc(Nc2cc3c(C(C)C)c(F)cc(N4C[C@H](N(C)S(C)(=O)=O)[C@H]4C)c3cn2)n1 [Example 5, N-((2R,3S)-1-(3-((2-(1,3-dimethyl-1H-pyrazol-4-yl)pyrimidin-4-yl)amino)-6-fluoro-5-isopropylisoquinolin-8-yl)-2-methylazetidin-3-yl)-N-methylmethanesulphonamide]
8.8 | 2.6 | – | – | – | – | CC(C)c1c(F)cc(N2C[C@H](NS(C)(=O)=O)[C@H]2C)c2cnc(Nc3ccnc(-c4cn(C)nc4Cl)n3)cc12 [Example 14, N-((2R,3S)-1-(3-((2-(3-chloro-1-methyl-1H-pyrazol-4-yl)pyrimidin-4-yl)amino)-6-fluoro-5-isopropylisoquinolin-8-yl)-2-methylazetidin-3-yl)methanesulphonamide]

Source: patent publication EP4778921A1, “SALT FORM AND CRYSTAL FORM OF NITROGEN-CONTAINING HETEROCYCLIC DERIVATIVE INHIBITOR, AND PREPARATION METHOD THEREFOR AND USE THEREOF” (Shanghai Hansoh Biomedical Co., Ltd., priority 2023, dated 2025)
